In paper PMC5944259 (Evidence-based Complementary and Alternative Medicine : eCAM, 2018):
Where two headings read alike, the source gives them in different places.

Key:
[1] = biological target: T1, Acetyl-CoA carboxylase 1 (Homo sapiens, UniProt Q13085); experiment: SPR assay ACC1; format: binding; settings: for Offset / Rmax / χ^2: ACC1
T1 construct: purchased Proteintech (Shanghai)
Protocol: In the SPR test, the target proteins were first combined with the CM5 chip. After correction through standard solutions, a series of different concentrations of molecules (0, 2, 4, 8, 16, 32, 64, and 128 μmol/l) were tested for their binding to the protein. Finally, the affinity between the protein and molecule was determined by an array of parameters, such as the Kd values, Rmax, offset, and χ^2.

[2] = biological target: T2, Mammalian target of rapamycin (Homo sapiens, UniProt P42345); experiment: Enzyme activity test mTOR (Lance ultra); format: biochemical
T2 construct: purchased Proteintech (Shanghai)
Protocol: (§1) As there were some kinase proteins in our protein database with different characteristics to other proteins, we used an enzyme activity test to validate the real interactions between the protein and molecule.
(§2) Selected pairs of protein and molecule participated in enzyme activity test, while electrophoretic mobility shirt assay (EMSA) and Lance ultra were conducted in an experiment with […] (100, 50, 25, 12.5, 6.25, 3.12, 1.56, 0.78, and 0.39 μmol/l). Finally, the IC50 (nM) value was used to assess the ability of a molecule to act or inhibit the protein.

[3] = database annotation in words, no reference given; cited from earlier work
[4] = cited from earlier work
[5] = biological target: T3, Protein kinase C, beta type (Homo sapiens, UniProt P05771); experiment: Enzyme activity test PKC-B (EMSA); format: biochemical
T3 construct: purchased Proteintech (Shanghai)
Protocol: as §1, §2

[6] = biological target: T4, Rho-associated protein kinase 1 (Homo sapiens, UniProt Q13464); experiment: Enzyme activity test ROCK1 (EMSA); format: biochemical
T4 construct: purchased Proteintech (Shanghai)
Protocol: as §1, §2

[7] = biological target: T5, Superoxide dismutase [Mn] (Homo sapiens, UniProt P04179); experiment: SPR assay SOD2; format: binding
T5 construct: purchased Sino Biological (Shanghai)
T5 sequence (P04179 25-222): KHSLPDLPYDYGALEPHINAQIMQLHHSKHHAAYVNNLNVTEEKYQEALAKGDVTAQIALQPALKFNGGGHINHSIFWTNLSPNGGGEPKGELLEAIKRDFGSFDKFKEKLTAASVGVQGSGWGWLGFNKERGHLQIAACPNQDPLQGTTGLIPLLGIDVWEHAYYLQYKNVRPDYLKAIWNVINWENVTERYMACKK

[8] = database annotation in words, no reference given; cited from earlier work; remark: listed apart in the source

T4 sequence (Q13464 whole entry): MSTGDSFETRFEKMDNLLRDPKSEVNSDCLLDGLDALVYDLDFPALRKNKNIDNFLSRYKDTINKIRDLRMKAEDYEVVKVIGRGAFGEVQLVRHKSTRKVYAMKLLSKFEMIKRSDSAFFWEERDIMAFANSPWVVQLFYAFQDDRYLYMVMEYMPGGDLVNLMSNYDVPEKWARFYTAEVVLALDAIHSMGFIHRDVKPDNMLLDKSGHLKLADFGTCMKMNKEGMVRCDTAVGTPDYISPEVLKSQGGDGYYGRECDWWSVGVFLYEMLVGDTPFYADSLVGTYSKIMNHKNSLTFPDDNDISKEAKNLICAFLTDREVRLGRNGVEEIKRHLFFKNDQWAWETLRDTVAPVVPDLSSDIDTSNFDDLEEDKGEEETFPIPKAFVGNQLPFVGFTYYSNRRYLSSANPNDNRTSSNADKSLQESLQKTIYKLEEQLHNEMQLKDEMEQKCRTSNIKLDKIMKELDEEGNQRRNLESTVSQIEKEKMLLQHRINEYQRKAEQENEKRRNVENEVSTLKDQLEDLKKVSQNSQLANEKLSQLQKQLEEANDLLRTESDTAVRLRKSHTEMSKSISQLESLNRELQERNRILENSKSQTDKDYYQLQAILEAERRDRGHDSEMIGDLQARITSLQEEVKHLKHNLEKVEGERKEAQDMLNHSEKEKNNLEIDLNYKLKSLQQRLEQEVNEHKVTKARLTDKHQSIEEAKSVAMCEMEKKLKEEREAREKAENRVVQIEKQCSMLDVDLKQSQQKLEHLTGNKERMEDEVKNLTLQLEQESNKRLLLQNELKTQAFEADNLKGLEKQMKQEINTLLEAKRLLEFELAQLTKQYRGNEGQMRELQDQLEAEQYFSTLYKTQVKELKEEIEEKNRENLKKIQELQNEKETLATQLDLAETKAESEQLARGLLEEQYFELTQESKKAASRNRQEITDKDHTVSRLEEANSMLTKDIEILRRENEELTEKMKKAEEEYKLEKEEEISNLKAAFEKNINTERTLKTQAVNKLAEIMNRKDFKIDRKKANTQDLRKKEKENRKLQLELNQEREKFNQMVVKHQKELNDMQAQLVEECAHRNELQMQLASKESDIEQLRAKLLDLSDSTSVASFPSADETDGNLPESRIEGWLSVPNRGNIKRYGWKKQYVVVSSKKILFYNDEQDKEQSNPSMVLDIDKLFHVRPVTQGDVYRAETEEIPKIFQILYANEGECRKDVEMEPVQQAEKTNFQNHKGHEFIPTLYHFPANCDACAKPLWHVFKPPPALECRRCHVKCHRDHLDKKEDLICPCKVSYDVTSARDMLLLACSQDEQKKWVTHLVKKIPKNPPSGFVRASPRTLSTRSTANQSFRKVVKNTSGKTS
T3 sequence (P05771 whole entry): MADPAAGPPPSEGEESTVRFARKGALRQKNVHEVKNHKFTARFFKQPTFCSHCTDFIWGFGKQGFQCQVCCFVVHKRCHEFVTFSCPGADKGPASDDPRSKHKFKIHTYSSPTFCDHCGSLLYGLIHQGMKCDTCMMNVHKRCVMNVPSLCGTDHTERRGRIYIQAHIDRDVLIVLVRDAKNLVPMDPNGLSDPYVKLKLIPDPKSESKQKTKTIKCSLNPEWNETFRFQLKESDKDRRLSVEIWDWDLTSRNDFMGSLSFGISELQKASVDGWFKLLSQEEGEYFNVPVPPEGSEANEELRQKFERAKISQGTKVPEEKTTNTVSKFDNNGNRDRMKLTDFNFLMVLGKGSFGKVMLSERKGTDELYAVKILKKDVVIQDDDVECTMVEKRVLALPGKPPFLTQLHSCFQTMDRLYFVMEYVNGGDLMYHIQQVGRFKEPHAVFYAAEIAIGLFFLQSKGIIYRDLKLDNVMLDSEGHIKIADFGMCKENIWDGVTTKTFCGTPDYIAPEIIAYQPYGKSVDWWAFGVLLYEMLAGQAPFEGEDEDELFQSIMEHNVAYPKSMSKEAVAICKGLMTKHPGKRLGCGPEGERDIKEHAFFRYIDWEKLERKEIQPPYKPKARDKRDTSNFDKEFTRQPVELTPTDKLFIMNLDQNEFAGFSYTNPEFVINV

## CC(C)(O)[C@@H]1CC[C@](C)([C@H]2[C@@H](O)C[C@@]3(C)[C@@H]4C[C@H](O[C@@H]5O[C@H](CO)[C@@H](O)[C@H](O)[C@H]5O)[C@H]5C(C)(C)[C@@H](O[C@@H]6OC[C@@H](O)[C@H](O)[C@H]6O)CC[C@@]56C[C@@]46CC[C@]23C)O1 [Astragaloside IV]
[1]
  Kd: 92.5 µM
[1]; SPR
  Offset: 0.2424 RU
  Rmax: 7.856 RU
  χ^2: 0.0243 RU^2
[2]
  IC50: > 10 µM
[3]
  作用药理 (pharmacological action): 诱导TNF-α分泌，降低直接作用+作用于肝糖调节酶+通过上调Sarco/内质网Ca2 + -ATP酶2的表达。抑制足细胞介导的细胞凋亡的内质网应激
[4]
  absorbed in blood after the oral administration of GDC: could be absorbed in blood

## COC(=O)C1=CO[C@@H](O[C@@H]2O[C@H](CO)[C@@H](O)[C@H](O)[C@H]2O)[C@@H]2[C@H](C)O[C@@H](O)C[C@H]12 [Morroniside]
[1]; SPR
  Offset: −0.2651 RU
  Rmax: 2.204 RU
  χ^2: 0.0962 RU^2
[1]; SPR, ACC1 on CM5 chip, read-out: Kd
  Kd: 13.6 µM
[5]
  IC50: > 10 µM
[6]
  IC50: > 10 µM
[4]
  absorbed in blood after the oral administration of GDC: could be absorbed in blood

## C[C@@H]1O[C@@H](OC[C@H]2O[C@@H](Oc3c(-c4ccc(O)c(O)c4)oc4cc(O)cc(O)c4c3=O)[C@H](O)[C@@H](O)[C@@H]2O)[C@H](O)[C@H](O)[C@H]1O [Rutin]
[4]
  absorbed in blood after the oral administration of GDC: could be absorbed in blood

## COc1c(O)cc(O)c2c(=O)cc(-c3ccccc3)oc12 [Wogonin]
[7]; SOD2
  Offset: −3.611 RU
  Rmax: 14.3 RU
  χ^2: 2.11 RU^2
[7]; SOD2 on CM5 chip
  Kd: 5.08 µM

## OC[C@H]1O[C@@H](O[C@@H]2OC=C[C@H]3[C@H](O)[C@@H]4O[C@]4(CO)[C@@H]23)[C@H](O)[C@@H](O)[C@@H]1O [catalpol / catalpinoside]
[3]
  作用药理 (pharmacological action): 有降糖作用
[8]
  stability remark (acid, base, high temperature): 酸碱高温下可分解，分解后变黑

## COc1cc(C(=O)OCCCCNC(=N)N)cc(OC)c1O [leonurine]
[3]
  作用药理 (pharmacological action): 抗血小板作用

## astragalosideⅤ
[3]
  作用药理 (pharmacological action): 阻碍羧甲基赖氨酸、戊糖苷形成，抑制糖尿病视网膜病变、神经病变进程

## stachyose
[3]
  作用药理: side effect: 胀气副作用，炮制可减少水苏糖的量
